Assay results from the supplement of paper PMC10307832.

Key:
Assay in all cases: relative viability (nuclei count vs DMSO), 5 days (fraction); higher = more cells survive
A-427 = system: A-427
Summary of the method: (§1)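 Cells from lung cancer lines were seeded into 1536-well plates and, one day later, dosed by pin tool. Treatments were either a single drug or a fixed dose of an anchor drug with five library-drug doses (not always all listed) in √10 steps. After 5 days, nuclei were stained in a one-step fixation (final 0.05% Triton X-100, 1% formaldehyde, 1 ug/ml Hoechst) and counted on 4× images, and relative viability is the treated-to-vehicle nuclei ratio, as the median of duplicate plates.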

COR-L23 = system: COR-L23
Summary of the method: as §1

ChaGo-K-1 = system: ChaGo-K-1
Summary of the method: as §1

EKVX = system: EKVX
Summary of the method: as §1

EPLC-272H = system: EPLC-272H
Summary of the method: as §1

HCC-366 = system: HCC-366
Summary of the method: as §1

HCC-44 = system: HCC-44
Summary of the method: as §1

HCC-78 = system: HCC-78
Summary of the method: as §1

HOP-62 = system: HOP-62
Summary of the method: as §1

LOU-NH91 = system: LOU-NH91
Summary of the method: as §1

NCI-H1395 = system: NCI-H1395
Summary of the method: as §1

NCI-H1650 = system: NCI-H1650
Summary of the method: as §1

NCI-H1734 = system: NCI-H1734
Summary of the method: as §1

NCI-H1915 = system: NCI-H1915
Summary of the method: as §1

NCI-H2023 = system: NCI-H2023
Summary of the method: as §1

NCI-H2087 = system: NCI-H2087
Summary of the method: as §1

NCI-H3122 = system: NCI-H3122
Summary of the method: as §1

NCI-H358 = system: NCI-H358
Summary of the method: as §1

NCI-H596 = system: NCI-H596
Summary of the method: as §1

NCI-H650 = system: NCI-H650
Summary of the method: as §1

NCI-H661 = system: NCI-H661
Summary of the method: as §1

NCI-H838 = system: NCI-H838
Summary of the method: as §1

SK-MES-1 = system: SK-MES-1
Summary of the method: as §1

O=c1[nH]c2ccccc2n1C1CCN(CCCC(c2ccc(F)cc2)c2ccc(F)cc2)CC1 [Pimozide] + Nc1ncn([C@H]2C[C@H](O)[C@@H](CO)O2)c(=O)n1 [Decitabine] (partner 2 µM)
relative viability (A-427; first compound 0.08 µM): 0.527
relative viability (A-427; first compound 0.253 µM): 0.583
relative viability (A-427; first compound 0.8 µM): 0.606
relative viability (A-427; first compound 2.53 µM): 0.479
relative viability (A-427; first compound 8 µM): 0.57
relative viability (COR-L23; first compound 0.08 µM): 0.409
relative viability (COR-L23; first compound 0.253 µM): 0.446
relative viability (COR-L23; first compound 0.8 µM): 0.411
relative viability (COR-L23; first compound 2.53 µM): 0.424
relative viability (COR-L23; first compound 8 µM): 0.495
relative viability (ChaGo-K-1; first compound 0.08 µM): 0.515
relative viability (ChaGo-K-1; first compound 0.253 µM): 0.453
relative viability (ChaGo-K-1; first compound 0.8 µM): 0.5
relative viability (ChaGo-K-1; first compound 2.53 µM): 0.546
relative viability (ChaGo-K-1; first compound 8 µM): 0.546
relative viability (EKVX; first compound 0.253 µM): 0.333
relative viability (EKVX; first compound 0.8 µM): 0.341
relative viability (EKVX; first compound 2.53 µM): 0.349
relative viability (EKVX; first compound 8 µM): 0.364
relative viability (EPLC-272H; first compound 0.08 µM): 0.309
relative viability (EPLC-272H; first compound 0.253 µM): 0.362
relative viability (EPLC-272H; first compound 0.8 µM): 0.33
relative viability (EPLC-272H; first compound 2.53 µM): 0.32
relative viability (EPLC-272H; first compound 8 µM): 0.318
relative viability (HCC-366; first compound 0.08 µM): 0.324
relative viability (HCC-366; first compound 0.253 µM): 0.34
relative viability (HCC-366; first compound 0.8 µM): 0.285
relative viability (HCC-366; first compound 2.53 µM): 0.346
relative viability (HCC-366; first compound 8 µM): 0.296
relative viability (HCC-44; first compound 0.08 µM): 1.01
relative viability (HCC-44; first compound 0.253 µM): 0.983
relative viability (HCC-44; first compound 0.8 µM): 0.843
relative viability (HCC-44; first compound 2.53 µM): 0.935
relative viability (HCC-44; first compound 8 µM): 0.919
relative viability (HCC-78; first compound 0.08 µM): 0.735
relative viability (HCC-78; first compound 0.8 µM): 0.671
relative viability (HCC-78; first compound 2.53 µM): 0.671
relative viability (HCC-78; first compound 8 µM): 0.702
relative viability (HOP-62; first compound 0.08 µM): 0.231
relative viability (HOP-62; first compound 0.253 µM): 0.228
relative viability (HOP-62; first compound 2.53 µM): 0.245
relative viability (HOP-62; first compound 8 µM): 0.244
relative viability (LOU-NH91; first compound 0.08 µM): 0.64
relative viability (LOU-NH91; first compound 0.253 µM): 0.818
relative viability (LOU-NH91; first compound 0.8 µM): 0.778
relative viability (LOU-NH91; first compound 2.53 µM): 0.829
relative viability (LOU-NH91; first compound 8 µM): 0.866
relative viability (NCI-H1395; first compound 0.08 µM): 0.692
relative viability (NCI-H1395; first compound 0.253 µM): 0.74
relative viability (NCI-H1395; first compound 0.8 µM): 0.633
relative viability (NCI-H1395; first compound 2.53 µM): 0.691
relative viability (NCI-H1395; first compound 8 µM): 0.637
relative viability (NCI-H1650; first compound 0.08 µM): 0.287
relative viability (NCI-H1650; first compound 0.253 µM): 0.485
relative viability (NCI-H1650; first compound 0.8 µM): 0.315
relative viability (NCI-H1650; first compound 2.53 µM): 0.404
relative viability (NCI-H1650; first compound 8 µM): 0.405
relative viability (NCI-H1734; first compound 0.08 µM): 0.51
relative viability (NCI-H1734; first compound 0.253 µM): 0.489
relative viability (NCI-H1734; first compound 0.8 µM): 0.525
relative viability (NCI-H1734; first compound 2.53 µM): 0.431
relative viability (NCI-H1734; first compound 8 µM): 0.509
relative viability (NCI-H1915; first compound 0.08 µM): 0.267
relative viability (NCI-H1915; first compound 0.253 µM): 0.248
relative viability (NCI-H1915; first compound 2.53 µM): 0.262
relative viability (NCI-H1915; first compound 8 µM): 0.262
relative viability (NCI-H2023; first compound 0.08 µM): 0.229
relative viability (NCI-H2023; first compound 0.253 µM): 0.273
relative viability (NCI-H2023; first compound 0.8 µM): 0.196
relative viability (NCI-H2023; first compound 2.53 µM): 0.247
relative viability (NCI-H2023; first compound 8 µM): 0.284
relative viability (NCI-H2087; first compound 0.08 µM): 0.277
relative viability (NCI-H2087; first compound 0.253 µM): 0.328
relative viability (NCI-H2087; first compound 2.53 µM): 0.342
relative viability (NCI-H2087; first compound 8 µM): 0.275
relative viability (NCI-H3122; first compound 0.08 µM): 0.435
relative viability (NCI-H3122; first compound 0.253 µM): 0.392
relative viability (NCI-H3122; first compound 0.8 µM): 0.418
relative viability (NCI-H3122; first compound 2.53 µM): 0.413
relative viability (NCI-H3122; first compound 8 µM): 0.416
relative viability (NCI-H358; first compound 0.08 µM): 0.196
relative viability (NCI-H358; first compound 0.253 µM): 0.219
relative viability (NCI-H358; first compound 0.8 µM): 0.315
relative viability (NCI-H358; first compound 2.53 µM): 0.213
relative viability (NCI-H358; first compound 8 µM): 0.228
relative viability (NCI-H596; first compound 0.08 µM): 0.97
relative viability (NCI-H596; first compound 0.253 µM): 0.931
relative viability (NCI-H596; first compound 0.8 µM): 0.986
relative viability (NCI-H596; first compound 2.53 µM): 0.85
relative viability (NCI-H596; first compound 8 µM): 1.08
relative viability (NCI-H650; first compound 0.08 µM): 0.278
relative viability (NCI-H650; first compound 0.253 µM): 0.33
relative viability (NCI-H650; first compound 0.8 µM): 0.342
relative viability (NCI-H650; first compound 2.53 µM): 0.321
relative viability (NCI-H650; first compound 8 µM): 0.275
relative viability (NCI-H661; first compound 0.08 µM): 0.564
relative viability (NCI-H661; first compound 0.253 µM): 0.581
relative viability (NCI-H661; first compound 0.8 µM): 0.48
relative viability (NCI-H661; first compound 2.53 µM): 0.497
relative viability (NCI-H661; first compound 8 µM): 0.495
relative viability (NCI-H838; first compound 0.08 µM): 0.487
relative viability (NCI-H838; first compound 0.253 µM): 0.395
relative viability (NCI-H838; first compound 0.8 µM): 0.42
relative viability (NCI-H838; first compound 2.53 µM): 0.43
relative viability (NCI-H838; first compound 8 µM): 0.469
relative viability (SK-MES-1; first compound 0.08 µM): 0.389
relative viability (SK-MES-1; first compound 0.253 µM): 0.39
relative viability (SK-MES-1; first compound 0.8 µM): 0.355
relative viability (SK-MES-1; first compound 2.53 µM): 0.454
relative viability (SK-MES-1; first compound 8 µM): 0.774
